Measured values as given in patent US8993480B2, “Active ingredient combinations with insecticidal properties” (Bayer CropScience AG, priority 2006, dated 2015).

Columns and labels:
Assay type in all cases: in vivo
Myzus persicae = Myzus persicae test (cabbage leaves, dip); details: cabbage leaves dipped; for Kill rate in % after 1 d, found: 4 ppm
Description: (§1) The expected activity for a given combination of two active compounds can be calculated according to S. R. Colby, Weeds 15 (1967), 20-22) as follows:
(§2) If • X is the kill rate, expressed in % of the untreated control, when employing active compound A at an application rate of m g/ha or in a concentration of m ppm, • Y is the kill rate, expressed in % of the untreated control, when employing active compound B at an application rate of n g/ha or in a concentration of n ppm and • E is the kill rate, expressed in % of the untreated control, when employing active compounds A and B at application rates of m and n g/ha or in a concentration of m and n ppm, then
(§3) If the actual insecticidal kill rate is higher than the calculated one, the kill rates of the combination are superadditive, i.e. a synergistic effect is present. In this case, the kill rate that is actually observed has to be higher than the value, calculated using the formula above, for the expected kill rate (E).
(§4) To produce a suitable preparation of active compound, 1 part by weight of active compound is mixed with the stated amounts of solvent and emulsifier, and the concentrate is diluted with emulsifier-containing water to the desired concentration.
Cabbage leaves (Brassica oleracea) which are heavily infested by the green peach aphid (Myzus persicae) are treated by being dipped into the preparation of active compound of the desired concentration.
After the desired period of time, the kill in % is determined. 100% means that all aphids have been killed; 0% means that none of the aphids have been killed. The determined kill rates are entered into Colby's formula (see page 71).

Aphis gossypii = Aphis gossypii test (cotton leaves, dip); details: cotton leaves dipped
Description: as §1, §2, §3, §4
Cotton leaves (Gossypium hirsutum) heavily infested by the cotton aphid (Aphis gossypii) are treated by being dipped into the preparation of active compound of the desired concentration.
After the desired period of time, the kill in % is determined 100% means that all aphids have been killed; 0% means that none of the aphids have been killed. The determined kill rates are entered into Colby's formula (see page 71).

Tetranychus urticae = Tetranychus urticae test (OP-resistent, dip application); details: bush beans dipped
Description: as §1, §2, §3
To produce a suitable preparation of active compound, 1 part by weight of active compound is mixed with the stated amounts of solvent and emulsifier, and the concentrate is diluted with water to the desired concentrations. […]
After the desired period of time, the kill in % is determined. […]

`Cc1nn(C)c(/C(OC(=O)C(C)(C)C)=C(\C#N)c2ccc(C(C)(C)C)cc2)c1C` [cyenopyrafen] was tested, and the “Kill rate in % after 1 d, found” value (Myzus persicae) was 0%.
In the case of `CNC(=O)c1cc(C#N)cc(C)c1NC(=O)c1cc(Br)nn1-c1ncccc1Cl` [compound (5)], the “Kill rate in % after 6 d, found” value (Myzus persicae; 0.16 ppm) is reported as 5%, the “Kill rate in % after 1 d, found” value (Myzus persicae) is reported as 10% and the “Kill rate in % after 6 d, found” value (Aphis gossypii; 0.8 ppm) is reported as 45%. For the same compound, the “Kill rate in % after 7 d, found” value (Tetranychus urticae; 0.16 ppm) was 0%.
For `CCOC(=O)OC1=C(c2cc(C)ccc2C)C(=O)N[C@]12CC[C@@H](OC)CC2` [spirotetramat], the “Kill rate in % after 6 d, found” value (Myzus persicae; 0.8 ppm) was 10%, the “Kill rate in % after 6 d, found” value (Aphis gossypii; 4 ppm) was 15% and the “Kill rate in % after 7 d, found” value (Tetranychus urticae; 0.8 ppm) was 25%.
`COCCOC(=O)C(C#N)(C(=O)c1ccccc1C(F)(F)F)c1ccc(C(C)(C)C)cc1` (stereo not drawn) [cyflumetofen] was tested, and the “Kill rate in % after 6 d, found” value (Aphis gossypii; 0.16 ppm) was 0%.
